ChEMBL document CHEMBL2086254, “Synthesis and identification of novel indolo[2,3-a]pyrimido[5,4-c]carbazoles as a new class of anti-cancer agents” (Eur J Med Chem, 2012)

How the values were obtained:
Assay type in all cases: functional
A498 = test: Cytotoxicity against human A498 cells assessed as cell growth at 10 uM after 48 hrs by SRB assay relative to control; details: A498, 48 h, read-out: Activity
TK-10 = test: Cytotoxicity against human TK10 cells assessed as cell growth at 10 uM after 48 hrs by SRB assay relative to control; details: TK-10, 48 h, read-out: Activity
PC-3 = test: Cytotoxicity against human PC3 cells assessed as cell growth at 10 uM after 48 hrs by SRB assay relative to control; details: PC-3, 48 h, read-out: Activity
DU-145 = test: Cytotoxicity against human DU145 cells assessed as cell growth at 10 uM after 48 hrs by SRB assay relative to control; details: DU-145, 48 h, read-out: Activity
[1] = Cytotoxicity against human Hs 578T cells assessed as cell growth at 10 uM after 48 hrs by SRB assay relative to control; details: read-out: Activity
T47D = test: Cytotoxicity against human T47D cells assessed as cell growth at 10 uM after 48 hrs by SRB assay relative to control; details: read-out: Activity
MDA-MB-468 = test: Cytotoxicity against human MDA-MB-468 cells assessed as cell growth at 10 uM after 48 hrs by SRB assay relative to control; details: MDA-MB-468, 48 h, read-out: Activity
EKVX = test: Cytotoxicity against human EKVX cells assessed as cell growth at 10 uM after 48 hrs by SRB assay relative to control; details: read-out: Activity
U-251 = test: Cytotoxicity against human U251 cells assessed as cell growth at 10 uM after 48 hrs by SRB assay relative to control; details: U-251, 48 h, read-out: Activity
MDA-MB-435 = test: Cytotoxicity against human MDA-MB-435 cells assessed cell growth at 10 uM after 48 hrs by SRB assay relative to control
IGROV-1 = test: Cytotoxicity against human IGROV1 cells assessed as cell growth at 10 uM after 48 hrs by SRB assay relative to control; details: IGROV-1, 48 h, read-out: Activity
CAKI-1 = test: Cytotoxicity against human Caki1 cells assessed as cell growth at 10 uM after 48 hrs by SRB assay relative to control; details: CAKI-1, 48 h, read-out: Activity
UO-31 = test: Cytotoxicity against human UO31 cells assessed as cell growth at 10 uM after 48 hrs by SRB assay relative to control; details: UO-31, 48 h, read-out: Activity
HCT-116 = test: Cytotoxicity against human HCT116 cells assessed as cell growth at 10 uM after 48 hrs by SRB assay relative to control; details: HCT-116, 48 h, read-out: Activity
KM12 = test: Cytotoxicity against human KM12 cells assessed as cell growth at 10 uM after 48 hrs by SRB assay relative to control; details: KM12, 48 h, read-out: Activity
SW-620 = test: Cytotoxicity against human SW620 cells assessed as cell growth at 10 uM after 48 hrs by SRB assay relative to control; details: SW-620, 48 h, read-out: Activity
M14 = test: Cytotoxicity against human M14 cells assessed as cell growth at 10 uM after 48 hrs by SRB assay relative to control; details: M14, 48 h, read-out: Activity
SK-MEL-2 = test: Cytotoxicity against human SK-MEL-2 cells assessed as cell growth at 10 uM after 48 hrs by SRB assay relative to control; details: SK-MEL-2, 48 h, read-out: Activity
SK-OV-3 = test: Cytotoxicity against human SKOV3 cells assessed as cell growth at 10 uM after 48 hrs by SRB assay relative to control; details: SK-OV-3, 48 h, read-out: Activity
ACHN = test: Cytotoxicity against human ACHN cells assessed as cell growth at 10 uM after 48 hrs by SRB assay relative to control; details: read-out: Activity
A549 = test: Cytotoxicity against human A549 cells assessed as cell growth at 10 uM after 48 hrs by SRB assay relative to control; details: A549, 48 h, read-out: Activity
K562 = test: Cytotoxicity against human K562 cells assessed as cell growth at 10 uM after 48 hrs by SRB assay relative to control; details: K562, 48 h, read-out: Activity
RPMI-8226 = test: Cytotoxicity against human RPMI8226 cells assessed as cell growth at 10 uM after 48 hrs by SRB assay relative to control; details: RPMI-8226, 48 h, read-out: Activity
NCI-H226 = test: Cytotoxicity against human NCI-H226 cells assessed as cell growth at 10 uM after 48 hrs by SRB assay relative to control; details: NCI-H226, 48 h, read-out: Activity
NCI-H460 = test: Cytotoxicity against human NCI-H460 cells assessed as cell growth at 10 uM after 48 hrs by SRB assay relative to control; details: NCI-H460, 48 h, read-out: Activity
HCT-15 = test: Cytotoxicity against human HCT15 cells assessed as cell growth at 10 uM after 48 hrs by SRB assay relative to control; details: HCT-15, 48 h, read-out: Activity
SF-268 = test: Cytotoxicity against human SF268 cells assessed as cell growth at 10 uM after 48 hrs by SRB assay relative to control; details: SF-268, 48 h, read-out: Activity
SF-539 = test: Cytotoxicity against human SF539 cells assessed as cell growth at 10 uM after 48 hrs by SRB assay relative to control; details: SF-539, 48 h, read-out: Activity
SNB-19 = test: Cytotoxicity against human SNB19 cells assessed as cell growth at 10 uM after 48 hrs by SRB assay relative to control; details: SNB-19, 48 h, read-out: Activity
LOX IMVI = test: Cytotoxicity against human LOXIMVI cells assessed as cell growth at 10 uM after 48 hrs by SRB assay relative to control; details: read-out: Activity
SK-MEL-28 = test: Cytotoxicity against human SK-MEL-28 cells assessed as cell growth at 10 uM after 48 hrs by SRB assay relative to control; details: SK-MEL-28, 48 h, read-out: Activity
SK-MEL-5 = test: Cytotoxicity against human SK-MEL-5 cells assessed as cell growth at 10 uM after 48 hrs by SRB assay relative to control; details: SK-MEL-5, 48 h, read-out: Activity
UACC-62 = test: Cytotoxicity against human UACC62 cells assessed as cell growth at 10 uM after 48 hrs by SRB assay relative to control; details: UACC-62, 48 h, read-out: Activity
OVCAR-8 = test: Cytotoxicity against human OVCAR8 cells assessed as cell growth at 10 uM after 48 hrs by SRB assay relative to control; details: OVCAR-8, 48 h, read-out: Activity
NCI/ADR-RES = test: Cytotoxicity against human NCI/ADR-RES cells assessed as cell growth at 10 uM after 48 hrs by SRB assay relative to control; details: read-out: Activity

Row | Structure (SMILES) | growth at 10 µM (A498) [%] | growth at 10 µM (TK-10) [%] | growth at 10 µM (PC-3) [%] | growth at 10 µM (DU-145) [%] | growth at 10 µM [1] [%] | growth at 10 µM (T47D) [%] | growth at 10 µM (MDA-MB-468) [%] | growth at 10 µM (EKVX) [%] | growth at 10 µM (U-251) [%] | Activity (MDA-MB-435) [%] | growth at 10 µM (IGROV-1) [%] | growth at 10 µM (CAKI-1) [%] | growth at 10 µM (UO-31) [%] | growth at 10 µM (HCT-116) [%] | growth at 10 µM (KM12) [%] | growth at 10 µM (SW-620) [%] | growth at 10 µM (M14) [%] | growth at 10 µM (SK-MEL-2) [%] | growth at 10 µM (SK-OV-3) [%] | growth at 10 µM (ACHN) [%] | other results
1 | Cn1cc(-c2nc(N)[nH]c(=O)c2-c2cn(C)c3ccccc23)c2ccccc21 | 112 | 82.3 | 89.7 | 122 | 103 | 93.8 | 106 | 105 | 100 | 109.77 | 68.9 | 94.6 | 64.6 | 99 | 103 | 94 | 97.6 | 102 | 95.8 | 98.5 | growth at 10 µM (A549): 101%; growth at 10 µM (K562): 111%; growth at 10 µM (RPMI-8226): 111%; growth at 10 µM (NCI-H226): 91%; growth at 10 µM (NCI-H460): 90.7%; growth at 10 µM (HCT-15): 117%; growth at 10 µM (SF-268): 109%; growth at 10 µM (SF-539): 141%; growth at 10 µM (SNB-19): 111%; growth at 10 µM (LOX IMVI): 118%; growth at 10 µM (SK-MEL-28): 118%; growth at 10 µM (SK-MEL-5): 101%; growth at 10 µM (UACC-62): 96.1%; growth at 10 µM (OVCAR-8): 97.5%; growth at 10 µM (NCI/ADR-RES): 108%
2 | Cn1c2ccccc2c2c3c(=O)[nH]c(N)nc3c3c4cccnc4n(C)c3c21 | 97.5 | 76.4 | 71 | 83.2 | 128 | 48.7 | 75.1 | 82.2 | 81.2 | 87.02 | 94.2 | 60.1 | 39.4 | 63 | 59 | 72 | 68.8 | 68.5 | 87.2 | 54.1 | growth at 10 µM (A549): 92.9%; growth at 10 µM (K562): 74%; growth at 10 µM (RPMI-8226): 64.4%; growth at 10 µM (NCI-H226): 65%; growth at 10 µM (NCI-H460): 65.5%; growth at 10 µM (HCT-15): 67.4%; growth at 10 µM (SF-268): 95.6%; growth at 10 µM (SF-539): 111%; growth at 10 µM (SNB-19): 103%; growth at 10 µM (LOX IMVI): 66%; growth at 10 µM (SK-MEL-28): 120%; growth at 10 µM (SK-MEL-5): 74.7%; growth at 10 µM (UACC-62): 87%; growth at 10 µM (OVCAR-8): 60.1%; growth at 10 µM (NCI/ADR-RES): 80.2%
